target: human Kv1.3 (Homo sapiens (Human), UniProt P22001); experiment: Kv1.3 potency evaluation, automated patch clamp electrophysiology (QPatch HT) in CHO-Kv1.3 cells; assay type: cell-based; details: whole-cell QPatch HT, % inhibition of charge, step to +30 mV, four concentrations, N≥3 cells, read-out: hKv1.3 IC50
From the text: Biological Assays Kv1.3 Potency Evaluation Electrophysiology Recordings
A proprietary Chinese hamster ovary cell line stably expressing exogenous human a-subunits of Kv1.3 (CHO-Kv1.3) channel, validated biophysically and pharmacologically in house, was used to assess the ability of test compounds to block Kv1.3 currents using automated patch clamp electrophysiology. The QPatch HT system (Sophion Bioscience A/S, Denmark) was used with the conventional whole-cell configuration. This system is an automated, chip-based planar patch clamp device allowing for up to 48 parallel independent experiments in one experimental assay run. Cells are added to each well and drawn by suction onto a small aperture to obtain a Gigaohm seal between the cell membrane and treated silicon surface, and whole-cell recordings initiated after access is achieved by suction and/or voltage pulses. The QPatch HT uses static perfusion, whereby a small volume of recording solution or drug is added to a reservoir on the chip and the solution perfuses across the cell through quartz-lined microfluidic channels; this solution is removed by capillary action when the next sample application is made.
CHO-Kv1.3 cells were prepared for experiments by dissociation from T175 cell culture flasks using trypsin-EDTA (0.05%), cells were kept in serum free media in the cell hotel on board the QPatch HT. These cells were sampled, washed and re-suspended in extracellular recording solution by the QPatch HT immediately before application to the recording well site on the chip. Experiments were performed using the following solutions; extracellular solution contained (in mM); 150 NaCl, 10 KCl, 1 MgCl2, 3 CaCl2), 10 Glucose and 10 HEPES (pH 7.4, NaOH) and intracellular solution contained (in mM); 20 KCl, 120 KF, 10 HEPES, 10 EGTA, 5 ATP (pH 7.2, KOH).
The potency (Inhibitory Concentration 50%, IC50) of synthesized compounds against Kv1.3 was determined from concentration-response relationships established by cumulatively applying four escalating concentrations of test compound to an individual cell and a minimum of N≥3 individual cells of data per compound were used to generate the IC50 value.
On achieving the whole-cell configuration; two additions of vehicle (0.1-0.3% DMSO v/v) were applied to each cell in two bolus additions with a two minute recording period between each addition (four minutes total recording time). Following the vehicle period, four concentrations of test sample were applied as two bolus additions per test concentration at two minute intervals, and the effects on current measured during the four minute recording period.
Currents were elicited using a single step voltage protocol. From a holding potential of −80 mV the cell is depolarised to +30 mV (500 ms) resulting in an outward current before finally repolarising the cell by returning to the holding potential. The command voltage was applied at a frequency of 0.067 Hz throughout the duration of the experiment. For each sweep of the voltage protocol membrane current and the passive properties of the individual cells were recorded by QPatch assay software (version 5.2). Cursors were placed to calculate the charge (integral of the current recorded during cursor interval) between 2-490 ms (0.4-99%) of the 500 ms step to +30 mV.
The % inhibition of charge for each test concentration application period was calculated as the reduction in mean charge at the end of each concentration test period relative to the charge value measured at the end of the control (i.e. vehicle) period. Sigmoidal concentration response curves (four parameter logistic curve) were fitted to the % inhibition rom which the IC50 was determined. Curve fits were constrained at 0 and 100%.

human Kv1.3, sequence (P22001 whole entry): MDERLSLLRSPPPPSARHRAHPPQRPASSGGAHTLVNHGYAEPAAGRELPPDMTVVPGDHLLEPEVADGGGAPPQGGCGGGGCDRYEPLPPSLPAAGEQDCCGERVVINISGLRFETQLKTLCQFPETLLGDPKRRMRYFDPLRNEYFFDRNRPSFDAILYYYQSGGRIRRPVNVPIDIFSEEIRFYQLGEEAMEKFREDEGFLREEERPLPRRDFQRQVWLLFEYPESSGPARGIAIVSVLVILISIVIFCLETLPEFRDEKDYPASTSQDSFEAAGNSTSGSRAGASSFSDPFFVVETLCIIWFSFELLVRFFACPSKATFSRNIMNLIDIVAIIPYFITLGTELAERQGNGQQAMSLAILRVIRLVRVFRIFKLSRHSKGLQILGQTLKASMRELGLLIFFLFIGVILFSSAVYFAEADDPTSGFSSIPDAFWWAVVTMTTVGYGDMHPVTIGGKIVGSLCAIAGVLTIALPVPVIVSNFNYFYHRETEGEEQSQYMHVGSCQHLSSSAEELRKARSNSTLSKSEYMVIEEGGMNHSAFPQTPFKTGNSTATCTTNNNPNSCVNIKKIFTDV

Q: For `CC1(C)N=C(C23CC(N(Cc4ccc(Cl)cc4)S(=O)(=O)N4CCCC4)(C2)C3)N[C@H]1C(=O)NCCC(F)(F)F` (mixture of isomers) [Example 43], which IC50 is on record?
A: 46 nM

Q: `C[C@H]1CC(F)(F)CN1C(=O)[C@@H]1NC(C23CC(N(Cc4ccc(Cl)c(F)c4)S(=O)(=O)c4ccccc4)(C2)C3)=NC1(C)C` (mixture of isomers) [Example 44] was tested. Which IC50 did it give?
A: 46 nM

Q: For `CC1(C)N=C(C23CC(N(Cc4ccc(Cl)cc4)S(=O)(=O)c4ccccc4)(C2)C3)N[C@H]1C(=O)NC1CC(C(F)F)C1` (mixture of isomers) [Example 45], which IC50 is on record?
A: 46 nM

Q: `CCCS(=O)(=O)N(Cc1ccc(Cl)c(Cl)c1)C12CC(C3=NC(C)(C)[C@H](C(=O)NCC(C)(C)C(F)(F)F)N3)(C1)C2` (mixture of isomers) [Example 46] was tested. Which IC50 did it give?
A: 47 nM

Q: How did the IC50 turn out when `CC1(C)N=C(C23CC(N(Cc4ccc(Cl)c(Cl)c4)S(=O)(=O)c4ccccc4)(C2)C3)N[C@H]1C(=O)NCC1CC(F)(F)C1` (mixture of isomers) [Example 47] was run?
A: 47 nM

Q: For `CC1(C)N=C(C23CC(N(Cc4ccc(Cl)cc4)S(=O)(=O)c4ccccn4)(C2)C3)N[C@H]1C(=O)NCCC(F)(F)F` (mixture of isomers) [Example 48], which IC50 is on record?
A: 48 nM

Q: How did the IC50 turn out when `CC1(C)N=C(C23CC(N(Cc4ccc(Cl)cc4)S(=O)(=O)c4ccccc4)(C2)C3)N[C@H]1C(=O)NCC(C)(C)C(F)(F)F` (mixture of isomers) [Example 49] was run?
A: 48 nM

Q: With `CC(C)(F)CNC(=O)[C@@H]1NC(C23CC(N(Cc4ccc(Cl)c(Cl)c4)S(=O)(=O)CCC(F)F)(C2)C3)=NC1(C)C` (mixture of isomers) [Example 50] as the compound, how does the IC50 read?
A: 48 nM

Q: For `CC1(C)N=C(C23CC(N(Cc4ccc(Cl)cc4)S(=O)(=O)c4ccccc4)(C2)C3)N[C@H]1C(=O)NCC1CC1(F)F` (mixture of isomers) [Example 51], which IC50 is on record?
A: 48 nM

Q: With `CC1(C)N=C(C23CC(N(Cc4ccc(Cl)cc4)S(=O)(=O)c4cccc(Cl)c4)(C2)C3)N[C@H]1C(=O)NCCC(F)(F)F` (mixture of isomers) [Example 52] as the compound, how does the IC50 read?
A: 49 nM

Q: `CC(C)(C)CNC(=O)[C@@H]1NC(C23CC(N(Cc4ccc(Cl)c(F)c4)S(=O)(=O)c4ccccc4)(C2)C3)=NC1(C)C` (mixture of isomers) [Example 53] was tested. Which IC50 did it give?
A: 49 nM

Q: Which IC50 does the source give for `CC(C)CS(=O)(=O)N(Cc1ccc(Cl)cc1)C12CC(C3=NC(C)(C)[C@H](C(=O)NCCC(F)(F)F)N3)(C1)C2` (mixture of isomers) [Example 54] here?
A: 50 nM

Q: How did the IC50 turn out when `CC1(C)N=C(C23CC(N(Cc4ccc(Cl)c(F)c4)S(=O)(=O)c4ccccc4)(C2)C3)N[C@H]1C(=O)N1CC(F)(F)C1` (mixture of isomers) [Example 55] was run?
A: 50 nM

Q: For `CC1(C)N=C(C23CC(N(Cc4ccc(Cl)c(F)c4)S(=O)(=O)c4ccccc4)(C2)C3)N[C@H]1C(=O)NCC1CC1` (mixture of isomers) [Example 56], which IC50 is on record?
A: 50 nM

Q: For `CC1(C)N=C(C23CC(N(Cc4ccc(Cl)c(F)c4)S(=O)(=O)c4ccccc4)(C2)C3)N[C@H]1C(=O)N1CCC2(CC2)C1` (mixture of isomers) [Example 57], which IC50 is on record?
A: 50 nM

Q: With `CN(CC(C)(C)F)C(=O)[C@@H]1NC(C23CC(N(Cc4ccc(Cl)c(Cl)c4)S(=O)(=O)c4ccccc4)(C2)C3)=NC1(C)C` (mixture of isomers) [Example 58] as the compound, how does the IC50 read?
A: 50 nM

Q: Which IC50 does the source give for `CC1(C)N=C(C23CC(N(Cc4ccc(Cl)cc4)S(=O)(=O)c4cccc(F)c4)(C2)C3)N[C@H]1C(=O)NCCC(F)(F)F` (mixture of isomers) [Example 59] here?
A: 51 nM

Q: How did the IC50 turn out when `CC1(C)N=C(C23CC(N(Cc4ccc(Cl)c(F)c4)S(=O)(=O)c4ccccc4)(C2)C3)N[C@H]1C(=O)NC1CCC1` (mixture of isomers) [Example 60] was run?
A: 51 nM

Q: How did the IC50 turn out when `CC1(C)N=C(C23CC(N(Cc4ccc(Cl)c(F)c4)S(=O)(=O)c4ccccc4)(C2)C3)N[C@H]1C(=O)N1CC(F)(F)C(F)(F)C1` (mixture of isomers) [Example 61] was run?
A: 51 nM

Q: Which IC50 does the source give for `CC1(C)N=C(C23CC(N(Cc4ccc(Cl)c(Cl)c4)S(=O)(=O)c4ccccc4)(C2)C3)N[C@H]1C(=O)NCCC(F)(F)F` (mixture of isomers) [Example 62] here?
A: 52 nM

Q: How did the IC50 turn out when `CC1(C)N=C(C23CC(N(Cc4ccc(Cl)c(F)c4)S(=O)(=O)c4ccccc4)(C2)C3)N[C@H]1C(=O)NCC1CC(F)(F)C1` (mixture of isomers) [Example 63] was run?
A: 52 nM

Q: `C[C@@H]1CCN(C(=O)[C@@H]2NC(C34CC(N(Cc5ccc(Cl)c(F)c5)S(=O)(=O)c5ccccc5)(C3)C4)=NC2(C)C)C1` (mixture of isomers) [Example 64] was tested. Which IC50 did it give?
A: 52 nM

Q: How did the IC50 turn out when `CC1(C)N=C(C23CC(N(Cc4ccc(F)c(Cl)c4)S(=O)(=O)c4ccccc4)(C2)C3)N[C@H]1C(=O)NCCC(F)(F)F` (mixture of isomers) [Example 65] was run?
A: 53 nM

Q: How did the IC50 turn out when `CC1(C)N=C(C23CC(N(Cc4ccc(Cl)cc4)S(=O)(=O)c4ccc(Cl)cc4)(C2)C3)N[C@H]1C(=O)NCCC(F)(F)F` (mixture of isomers) [Example 66] was run?
A: 53 nM

Q: `CC1(C)N=C(C23CC(N(Cc4ccc(Cl)cc4)S(=O)(=O)CCC4CC4)(C2)C3)N[C@H]1C(=O)NCCC(F)(F)F` (mixture of isomers) [Example 67] was tested. Which IC50 did it give?
A: 53 nM

Q: How did the IC50 turn out when `CC1(C)N=C(C23CC(N(Cc4ccc(Cl)c(F)c4)S(=O)(=O)c4ccccc4)(C2)C3)N[C@H]1C(=O)NC1CC1` (mixture of isomers) [Example 68] was run?
A: 55 nM

Q: `CN(CC1CC1(F)F)C(=O)[C@@H]1NC(C23CC(N(Cc4ccc(Cl)c(F)c4)S(=O)(=O)c4ccccc4)(C2)C3)=NC1(C)C` (mixture of isomers) [Example 69] was tested. Which IC50 did it give?
A: 55 nM

Q: How did the IC50 turn out when `CC1(C)N=C(C23CC(N(Cc4ccc(Cl)cc4)S(=O)(=O)c4cccc(C#N)c4)(C2)C3)N[C@H]1C(=O)NCCC(F)(F)F` (mixture of isomers) [Example 70] was run?
A: 56 nM

Q: Which IC50 does the source give for `CC1(C)N=C(C23CC(N(Cc4ccc(Cl)c(F)c4)S(=O)(=O)c4ccccc4)(C2)C3)N[C@H]1C(=O)N1CCCC12CCC2` (mixture of isomers) [Example 71] here?
A: 57 nM

Q: For `CC1(C)N=C(C23CC(N(Cc4ccc(Cl)c(Cl)c4)S(=O)(=O)CCC(F)F)(C2)C3)N[C@H]1C(=O)NC12CC(C1)C2` (mixture of isomers) [Example 72], which IC50 is on record?
A: 57 nM

Q: How did the IC50 turn out when `C[C@H](NC(=O)[C@@H]1NC(C23CC(N(Cc4ccc(Cl)c(F)c4)S(=O)(=O)c4ccccc4)(C2)C3)=NC1(C)C)C(F)(F)F` (mixture of isomers) [Example 73] was run?
A: 58 nM

Q: `CC(F)(F)CCS(=O)(=O)N(Cc1ccc(Cl)c(Cl)c1)C12CC(C3=NC(C)(C)[C@H](C(=O)NC45CC(C4)C5)N3)(C1)C2` (mixture of isomers) [Example 74] was tested. Which IC50 did it give?
A: 58 nM

Q: Which IC50 does the source give for `CC1(C)N=C(C23CC(N(Cc4ccc(Cl)c(F)c4)S(=O)(=O)c4ccccc4)(C2)C3)N[C@H]1C(=O)NC1CC1C(F)(F)F` (mixture of isomers) [Example 75] here?
A: 59 nM

Q: `CC1(C)N=C(C23CC(N(Cc4ccc(Cl)cc4)S(=O)(=O)c4ccccc4)(C2)C3)N[C@H]1C(=O)N1CCC(F)(F)CC1` (mixture of isomers) [Example 76] was tested. Which IC50 did it give?
A: 60 nM

Q: With `CC1(C)N=C(C23CC(N(Cc4ccc(Cl)c(F)c4)S(=O)(=O)c4ccccc4)(C2)C3)N[C@H]1C(=O)N1C2CCC1CC(F)(F)C2` (mixture of isomers) [Example 77] as the compound, how does the IC50 read?
A: 60 nM

Q: `CN(C(=O)[C@@H]1NC(C23CC(N(Cc4ccc(Cl)c(F)c4)S(=O)(=O)c4ccccc4)(C2)C3)=NC1(C)C)C1CC(C(F)F)C1` (mixture of isomers) [Example 78] was tested. Which IC50 did it give?
A: 60 nM

Q: How did the IC50 turn out when `CC1(C)N=C(C23CC(N(Cc4ccc(Cl)c(F)c4)S(=O)(=O)c4ccccc4)(C2)C3)N[C@H]1C(=O)NCCC(F)F` (mixture of isomers) [Example 79] was run?
A: 60 nM

Q: With `CCCCCS(=O)(=O)N(Cc1ccc(Cl)cc1)C12CC(C3=NC(C)(C)[C@H](C(=O)NCCC(F)(F)F)N3)(C1)C2` (mixture of isomers) [Example 80] as the compound, how does the IC50 read?
A: 61 nM

Q: For `CC1(C)N=C(C23CC(N(Cc4ccc(Cl)c(F)c4)S(=O)(=O)c4ccccc4)(C2)C3)N[C@H]1C(=O)N1CC2CC2C1` (mixture of isomers) [Example 81], which IC50 is on record?
A: 61 nM
